Columns and labels:
[1] = target: PD-1/PD-L1 (Homo sapiens, UniProt Q9NZQ7); assay: PD-1/PD-L1 biochemical protein-protein interaction assay (ALPHA); assay type: binding; settings: 0.3 nM His tagged PD-L1, 2.5 nM biotinylated Fc-PD-1, 60 minutes at 25° C., read-out: IC50 PD-L1-PD-1 Alpha IC50-mono PD-L1-fcP-D1
Outline: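 His-PD-L1 ECD 0.3 nM + biotin-Fc-PD-1 2.5 nM (final), 25 mM Hepes pH 7.4, 150 mM NaCl, 3.4 mM EDTA; 60 min, 25° C; anti-His acceptor/streptavidin donor ALPHA beads; decreased signal = blocked binding; 4-parameter IC50.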

[2] = target: T1, PD-1/PD-L1 interaction (Homo sapiens, UniProt Q9NZQ7); assay: PD-1/PD-L1 NFAT reporter co-culture assay; assay type: cell-based; settings: Jurkat PD-1 NFAT-luciferase cells co-cultured with aAPC-PD-L1 CHO cells, 6 hrs at 37° C.; read-out: EC50 NFAT Luciferase
T1 construct: expressed in transfected cells; host or cells: CHO cells (aAPC-PD-L1) co-cultured with Jurkat cells overexpressing PD-1 and an NFAT-luciferase reporter
Outline: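 Compounds are scored by restoration of NFAT-luciferase signal in PD-1-expressing Jurkat cells cultured 6 h at 37 °C on CHO cells presenting anti-CD3 and PD-L1; EC50 values derive from four-parameter curve fitting.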

T1 sequence (Q9NZQ7 19-290): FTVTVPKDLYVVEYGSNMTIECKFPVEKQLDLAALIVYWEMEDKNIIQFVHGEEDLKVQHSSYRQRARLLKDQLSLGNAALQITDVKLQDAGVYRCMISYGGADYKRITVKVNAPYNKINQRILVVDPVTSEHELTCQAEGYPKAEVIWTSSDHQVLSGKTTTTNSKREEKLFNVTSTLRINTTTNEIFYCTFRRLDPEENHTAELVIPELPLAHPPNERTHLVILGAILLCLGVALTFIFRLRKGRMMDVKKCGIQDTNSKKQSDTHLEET
PD-1/PD-L1, sequence (Q9NZQ7 19-238 limits assumed): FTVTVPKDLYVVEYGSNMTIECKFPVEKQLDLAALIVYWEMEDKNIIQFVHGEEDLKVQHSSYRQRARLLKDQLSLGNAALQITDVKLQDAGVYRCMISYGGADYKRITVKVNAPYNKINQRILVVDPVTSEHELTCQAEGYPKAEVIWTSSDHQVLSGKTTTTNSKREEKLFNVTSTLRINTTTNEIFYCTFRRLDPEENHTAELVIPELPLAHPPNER

| SMILES | IC50 [1] [µM] | EC50 [2] [µM] |
| --- | --- | --- |
| Cc1c(COc2cc(OCc3cncc(C#N)c3)c(CN3CC[C@@H]3CO)cc2Br)cccc1-c1cccc(COc2cc(OCc3cncc(C#N)c3)c(CN3CC[C@@H]3CO)cc2Br)c1C [Example 258, 5,5′-((((((2,2′-dimethyl-[1,1′-biphenyl]-3,3′-diyl)bis(methylene))bis(oxy))bis(4-bromo-6-(((R)-2-(hydroxymethyl)azetidin-1-yl)methyl)-3,1-phenylene))bis(oxy))bis(methylene))dinicotinonitrile] | 0.0063 | 0.419 |
| Cc1c(COc2cc(OCc3cncc(C#N)c3)c(CNCc3ncc[nH]3)cc2Br)cccc1-c1cccc(COc2cc(OCc3cncc(C#N)c3)c(CNCc3ncc[nH]3)cc2Br)c1C [Example 261, 5,5′-((((((2,2′-dimethyl-[1,1′-biphenyl]-3,3′-diyl)bis(methylene))bis(oxy))bis(6-((((1H-imidazol-2-yl)methyl)amino)methyl)-4-bromo-3,1-phenylene))bis(oxy))bis(methylene))dinicotinonitrile] | 0.12 | 3.17 |
| COc1nc(OCc2cccc(-c3cccc(COc4nc(OC)c(CNC[C@@H](O)CC(=O)O)cc4S(C)(=O)=O)c3C)c2C)c(S(C)(=O)=O)cc1CNC[C@@H](O)CC(=O)O [Example 263, (3S,3′S)-4,4′-((((((2,2′-dimethyl-[1,1′-biphenyl]-3,3′-diyl)bis(methylene))bis(oxy))bis(2-methoxy-5-(methylsulfonyl)pyridine-6,3-diyl))bis(methylene))bis(azanediyl))bis(3-hydroxybutanoic acid)] | 0.0018 | 36.4 |
| N#Cc1cncc(COc2cc(C(=O)N3CCc4c(-c5cccc6c5CCN6C(=O)c5ccc(CNC[C@@H](O)CC(=O)O)c(OCc6cncc(C#N)c6)c5)cccc43)ccc2CNC[C@@H](O)CC(=O)O)c1 [Example 267, (3S,3′S)-4,4′-(((([4,4′-biindoline]-1,1′-dicarbonyl)bis(2-((5-cyanopyridin-3-yl)methoxy)-4,1-phenylene))bis(methylene))bis(azanediyl))bis(3-hydroxybutanoic acid)] | 0.0011 | 8.54 |
| Cc1c(COc2nc(OCc3ccc(N4CCOCC4)nc3)c(CNC[C@@H](O)CC(=O)O)cc2Br)cccc1-c1cccc(COc2nc(OCc3ccc(N4CCOCC4)nc3)c(CNC[C@@H](O)CC(=O)O)cc2Br)c1C [Example 269, (3S,3′S)-4,4′-((((((2,2′-dimethyl-[1,1′-biphenyl]-3,3′-diyl)bis(methylene))bis(oxy))bis(5-bromo-2-((6-morpholinopyridin-3-yl)methoxy)pyridine-6,3-diyl))bis(methylene))bis(azanediyl))bis(3-hydroxybutanoic acid)] | 0.0123 | ≥ 50 |
| CCOc1nc(OCc2cccc(-c3cccc(COc4ccc(CNCCO)c(OCC)n4)c3C)c2C)ccc1CNCCO [Example 271, 2,2′-((((((2,2′-dimethyl-[1,1′-biphenyl]-3,3′-diyl)bis(methylene))bis(oxy))bis(2-ethoxypyridine-6,3-diyl))bis(methylene))bis(azanediyl))bis(ethan-1-ol)] | 0.056 | ≥ 50 |
| Cc1c(COc2cc(OCc3cncc(C#N)c3)c(CNCc3ccccn3)cc2Br)cccc1-c1cccc(COc2cc(OCc3cncc(C#N)c3)c(CNCc3ccccn3)cc2Br)c1C [Example 275, 5,5′-((((((2,2′-dimethyl-[1,1′-biphenyl]-3,3′-diyl)bis(methylene))bis(oxy))bis(4-bromo-6-(((pyridin-2-ylmethyl)amino)methyl)-3,1-phenylene))bis(oxy))bis(methylene))dinicotinonitrile] | 0.154 | 10.4 |

The next lines start with the values.

| IC50 [1] [µM] | EC50 [2] [µM] | SMILES |
| --- | --- | --- |
| 0.024 | 0.657 | Cc1c(COc2cc(OCc3cncc(C#N)c3)c(CNC[C@@H](O)CO)cc2Br)cccc1-c1cccc(COc2cc(OCc3cncc(C#N)c3)c(CNC[C@@H](O)CO)cc2Br)c1C [Example 257, 5,5′-((((((2,2′-dimethyl-[1,1′-biphenyl]-3,3′-diyl)bis(methylene))bis(oxy))bis(4-bromo-6-((((R)-2,3-dihydroxypropyl)amino)methyl)-3,1-phenylene))bis(oxy))bis(methylene))dinicotinonitrile] |
| 0.0227 | 0.511 | Cc1c(COc2cc(OCc3cncc(C#N)c3)c(CNC[C@H](O)CO)cc2Br)cccc1-c1cccc(COc2cc(OCc3cncc(C#N)c3)c(CNC[C@H](O)CO)cc2Br)c1C [Example 259, 5,5′-((((((2,2′-dimethyl-[1,1′-biphenyl]-3,3′-diyl)bis(methylene))bis(oxy))bis(4-bromo-6-((((S)-2,3-dihydroxypropyl)amino)methyl)-3,1-phenylene))bis(oxy))bis(methylene))dinicotinonitrile] |
| 0.0015 | 8.62 | Cc1c(COc2cc(OCc3nccs3)c(CNC[C@@H](O)CC(=O)O)cc2Cl)cccc1-c1cccc(COc2cc(OCc3nccs3)c(CNC[C@@H](O)CC(=O)O)cc2Cl)c1C [Example 262, (3S,3′S)-4,4′-((((((2,2′-dimethyl-[1,1′-biphenyl]-3,3′-diyl)bis(methylene))bis(oxy))bis(5-chloro-2-(thiazol-2-ylmethoxy)-4,1-phenylene))bis(methylene))bis(azanediyl))bis(3-hydroxybutanoic acid)] |
| 0.0032 | 7.06 | Cc1c(COc2ccc(CNC[C@@H](O)CC(=O)O)c(OCc3cc(C#N)ccc3F)c2)cccc1-c1cccc(COc2ccc(CNC[C@@H](O)CC(=O)O)c(OCc3cc(C#N)ccc3F)c2)c1C [Example 265, (3S,3′S)-4,4′-((((((2,2′-dimethyl-[1,1′-biphenyl]-3,3′-diyl)bis(methylene))bis(oxy))bis(2-((5-cyano-2-fluorobenzyl)oxy)-4,1-phenylene))bis(methylene))bis(azanediyl))bis(3-hydroxybutanoic acid)] |
| 0.0025 | 37.7 | Cc1c(COc2ccc(CNC[C@@H](O)CC(=O)O)c(-c3cncc(C#N)c3)c2)cccc1-c1cccc(COc2ccc(CNC[C@@H](O)CC(=O)O)c(-c3cncc(C#N)c3)c2)c1C [Example 272, (3S,3′S)-4,4′-((((((2,2′-dimethyl-[1,1′-biphenyl]-3,3′-diyl)bis(methylene))bis(oxy))bis(2-(5-cyanopyridin-3-yl)-4,1-phenylene))bis(methylene))bis(azanediyl))bis(3-hydroxybutanoic acid)] |
| 0.2 | ≥ 50 | Cc1c(COc2cc(OCc3nc4ccccc4[nH]3)c(CNC[C@@H](O)CC(=O)O)cc2Cl)cccc1-c1cccc(COc2cc(OCc3nc4ccccc4[nH]3)c(CNC[C@@H](O)CC(=O)O)cc2Cl)c1C [Example 273, (3S,3′S)-4,4′-((((((2,2′-dimethyl-[1,1′-biphenyl]-3,3′-diyl)bis(methylene))bis(oxy))bis(2-((1H-benzo[d]imidazol-2-yl)methoxy)-5-chloro-4,1-phenylene))bis(methylene))bis(azanediyl))bis(3-hydroxybutanoic acid)] |
| 0.0778 | 2.05 | Cc1c(COc2cc(OCc3cncc(C#N)c3)c(CNC[C@@H](F)C(C)(C)O)cc2Cl)cccc1-c1cccc(COc2cc(OCc3cncc(C#N)c3)c(CNC[C@@H](F)C(C)(C)O)cc2Cl)c1C [Example 276, 5,5′-((((((2,2′-dimethyl-[1,1′-biphenyl]-3,3′-diyl)bis(methylene))bis(oxy))bis(4-chloro-6-((((R)-2-fluoro-3-hydroxy-3-methylbutyl)amino)methyl)-3,1-phenylene))bis(oxy))bis(methylene))dinicotinonitrile] |
| 0.125 | ≥ 50 | Cc1c(COc2cc(O)c(CNC[C@@H](F)C(C)(C)O)cc2Cl)cccc1-c1cccc(COc2cc(OCc3cncc(C#N)c3)c(CNC[C@@H](F)C(C)(C)O)cc2Cl)c1C [Example 277, 5-((4-chloro-5-((3′-((2-chloro-4-((((R)-2-fluoro-3-hydroxy-3-methylbutyl)amino)methyl)-5-hydroxyphenoxy)methyl)-2,2′-dimethyl-[1,1′-biphenyl]-3-yl)methoxy)-2-((((R)-2-fluoro-3-hydroxy-3-methylbutyl)amino)methyl)phenoxy)methyl)nicotinonitrile] |
| 0.0087 | 0.488 | Cc1c(COc2cc(OCc3cncc(C#N)c3)c(CNC(CO)CO)cc2Cl)cccc1-c1cccc(COc2cc(OCc3cncc(C#N)c3)c(CNC(CO)CO)cc2Cl)c1C [Example 281, 5,5′-((((((2,2′-dimethyl-[1,1′-biphenyl]-3,3′-diyl)bis(methylene))bis(oxy))bis(4-chloro-6-(((1,3-dihydroxypropan-2-yl)amino)methyl)-3,1-phenylene))bis(oxy))bis(methylene))dinicotinonitrile] |
| 0.0008 | 20.9 | Cc1c(COc2ccc(CNC[C@@H](O)CC(=O)O)cc2Cl)cccc1-c1cccc(COc2ccc(CNC[C@@H](O)CC(=O)O)cc2Cl)c1C [Example 283, (3S,3′S)-4,4′-((((((2,2′-dimethyl-[1,1′-biphenyl]-3,3′-diyl)bis(methylene))bis(oxy))bis(3-chloro-4,1-phenylene))bis(methylene))bis(azanediyl))bis(3-hydroxybutanoic acid)] |
